Laboratory results as given in ChEMBL document CHEMBL1145256, “Synthesis of novel 10-deoxoartemisinins” (Bioorg Med Chem Lett, 2005).

How the values were obtained:
[1] = test system: Plasmodium falciparum; assay: microbe, parasite or virus in culture
Description: In vitro antimalarial activity against Plasmodium falciparum resistant W-2

[2] = test system: Plasmodium falciparum; assay: microbe, parasite or virus in culture; remark: listed apart in the source
Description: In vitro antimalarial activity against Plasmodium falciparum (Ghana)

Compound | IC50 [1] [nM] | IC50 [2] [nM]
C[C@H]1[C@@H](CCOC(=O)C2CC=CCC2C(=O)O)O[C@@H]2O[C@]3(C)CC[C@H]4[C@H](C)CC[C@@H]1[C@@]24OO3 (some centres not stated) | 0.4 | 0.5
C[C@@H]1CC[C@H]2[C@@H](C)C(=O)O[C@@H]3O[C@@]4(C)CC[C@@H]1[C@]32OO4 [ARTEMISININ] |  | 9
C[C@H]1[C@@H](CCNCCc2ccccc2)O[C@@H]2O[C@]3(C)CC[C@H]4[C@H](C)CC[C@@H]1[C@@]24OO3 | 20 | 11
C[C@H]1[C@@H](CCO)O[C@@H]2OC3(C)CC[C@H]4[C@H](C)CC[C@@H]1[C@@]24OO3 (single isomer, unassigned) | 1 | 1
C[C@H]1[C@@H](CCOC(=O)CCC(=O)O)O[C@@H]2O[C@]3(C)CC[C@H]4[C@H](C)CC[C@@H]1[C@@]24OO3 | 0.4 | 0.5
C[C@H]1[C@@H](CCNCc2ccccn2)O[C@@H]2O[C@]3(C)CC[C@H]4[C@H](C)CC[C@@H]1[C@@]24OO3 | 2 | 2
CCCNCC[C@H]1O[C@@H]2O[C@]3(C)CC[C@H]4[C@H](C)CC[C@@H]([C@H]1C)[C@@]24OO3 | 3 | 1
C[C@H]1[C@@H](CCOC(=O)C2CCCCC2C(=O)O)O[C@@H]2O[C@]3(C)CC[C@H]4[C@H](C)CC[C@@H]1[C@@]24OO3 (some centres not stated) | 0.4 | 0.5
C[C@H]1[C@@H](CCNCc2cccnc2)O[C@@H]2O[C@]3(C)CC[C@H]4[C@H](C)CC[C@@H]1[C@@]24OO3 | 1 | 1
